Measurements from ChEMBL document CHEMBL4680228 (Eur J Med Chem, 2020).
Calls of active or inactive are those of the source. The calls are words filed in the database; no cut-off is given here.

Experiments:
[1] = test system: SR; assay: Antiproliferative activity against human SR cells assessed as reduction in cell growth; assay type: functional, cell-based
[2] = target: NPM/ALK (Nucleophosmin/ALK tyrosine kinase receptor) (Homo sapiens) (UniProt Q9UM73+P06748); assay: Induction of NPM-ALK fusion protein degradation in human SR cells; assay type: cell-based
[3] = target: von Hippel-Lindau disease tumor suppressor/ALK tyrosine kinase receptor/Nucleophosmin (Homo sapiens, UniProt Q9UM73+P06748+P40337); assay: Protac activity at VHL/NPM-ALK fusion protein in human SR cells assessed as degradation of ALK; assay type: cell-based
[4] = test system: NCI-H69; assay: Antiproliferative activity against human NCI-H69 cells assessed as inhibition of cell proliferation; assay type: functional, cell-based
[5] = test system: NCI-H2228; assay: Antiproliferative activity against human NCI-H2228 cells expressing EML4-ALK assessed as reduction in cell viability incubated for 72 hrs by CCK8 assay; assay type: functional, cell-based; conditions: NCI-H2228, 72 h
[6] = cells; conditions: Homo sapiens, NCI-H1688
Description: Antiproliferative activity against human NCI-H1688 cells assessed as inhibition of cell proliferation

Sequence of von Hippel-Lindau disease tumor suppressor/ALK tyrosine kinase receptor/Nucleophosmin (Q9UM73 whole entry, the tested form may be a part): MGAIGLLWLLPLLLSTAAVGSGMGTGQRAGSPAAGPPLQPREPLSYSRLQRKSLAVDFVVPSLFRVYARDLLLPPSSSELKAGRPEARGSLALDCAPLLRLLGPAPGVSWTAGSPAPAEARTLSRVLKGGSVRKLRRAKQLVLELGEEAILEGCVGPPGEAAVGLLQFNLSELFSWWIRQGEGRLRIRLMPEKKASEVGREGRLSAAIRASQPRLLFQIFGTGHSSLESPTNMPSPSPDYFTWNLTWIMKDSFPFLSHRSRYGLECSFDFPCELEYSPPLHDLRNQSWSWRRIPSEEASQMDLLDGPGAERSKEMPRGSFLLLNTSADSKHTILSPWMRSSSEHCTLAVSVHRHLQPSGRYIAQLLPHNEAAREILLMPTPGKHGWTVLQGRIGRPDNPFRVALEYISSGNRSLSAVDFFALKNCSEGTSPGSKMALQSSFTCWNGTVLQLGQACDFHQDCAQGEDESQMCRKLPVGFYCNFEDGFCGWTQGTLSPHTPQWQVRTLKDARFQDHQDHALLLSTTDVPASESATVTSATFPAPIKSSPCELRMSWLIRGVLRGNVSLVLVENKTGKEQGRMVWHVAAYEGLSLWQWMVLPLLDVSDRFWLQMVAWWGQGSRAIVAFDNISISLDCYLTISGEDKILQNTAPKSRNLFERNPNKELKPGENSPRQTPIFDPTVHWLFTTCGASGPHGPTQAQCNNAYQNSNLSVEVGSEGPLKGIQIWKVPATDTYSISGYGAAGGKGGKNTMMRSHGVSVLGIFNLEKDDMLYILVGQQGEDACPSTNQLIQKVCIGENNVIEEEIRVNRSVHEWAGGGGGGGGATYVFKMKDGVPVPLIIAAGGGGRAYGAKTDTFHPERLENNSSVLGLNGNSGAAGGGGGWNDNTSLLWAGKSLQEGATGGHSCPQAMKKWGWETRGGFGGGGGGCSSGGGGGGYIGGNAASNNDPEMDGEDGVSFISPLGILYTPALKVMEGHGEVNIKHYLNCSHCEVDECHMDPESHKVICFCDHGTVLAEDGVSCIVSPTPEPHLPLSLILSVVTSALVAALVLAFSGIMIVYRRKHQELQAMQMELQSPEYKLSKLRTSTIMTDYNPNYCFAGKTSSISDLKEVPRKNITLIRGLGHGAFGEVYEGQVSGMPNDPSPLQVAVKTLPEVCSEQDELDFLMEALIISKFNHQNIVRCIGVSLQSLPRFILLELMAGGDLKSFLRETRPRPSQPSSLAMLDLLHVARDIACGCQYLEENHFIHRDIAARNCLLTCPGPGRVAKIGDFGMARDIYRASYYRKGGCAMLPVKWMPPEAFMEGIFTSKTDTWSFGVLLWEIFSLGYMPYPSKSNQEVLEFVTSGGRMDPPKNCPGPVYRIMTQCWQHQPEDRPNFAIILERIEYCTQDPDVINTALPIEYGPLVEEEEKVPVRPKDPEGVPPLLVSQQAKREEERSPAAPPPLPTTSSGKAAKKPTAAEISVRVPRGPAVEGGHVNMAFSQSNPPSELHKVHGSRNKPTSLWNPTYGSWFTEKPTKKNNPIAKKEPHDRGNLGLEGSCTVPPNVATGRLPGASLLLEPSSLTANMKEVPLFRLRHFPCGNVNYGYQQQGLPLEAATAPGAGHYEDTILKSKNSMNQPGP
Sequence of von Hippel-Lindau disease tumor suppressor/ALK tyrosine kinase receptor/Nucleophosmin (P06748 whole entry, the tested form may be a part): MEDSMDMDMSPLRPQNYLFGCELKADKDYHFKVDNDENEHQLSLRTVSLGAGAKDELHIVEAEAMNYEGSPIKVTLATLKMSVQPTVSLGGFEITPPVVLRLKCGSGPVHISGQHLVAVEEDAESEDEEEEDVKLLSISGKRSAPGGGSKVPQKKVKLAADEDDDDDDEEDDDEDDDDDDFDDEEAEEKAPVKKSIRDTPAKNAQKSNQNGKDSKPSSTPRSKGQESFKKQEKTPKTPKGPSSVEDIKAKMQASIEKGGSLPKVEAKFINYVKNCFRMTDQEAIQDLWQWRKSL
Sequence of von Hippel-Lindau disease tumor suppressor/ALK tyrosine kinase receptor/Nucleophosmin (P40337 whole entry, the tested form may be a part): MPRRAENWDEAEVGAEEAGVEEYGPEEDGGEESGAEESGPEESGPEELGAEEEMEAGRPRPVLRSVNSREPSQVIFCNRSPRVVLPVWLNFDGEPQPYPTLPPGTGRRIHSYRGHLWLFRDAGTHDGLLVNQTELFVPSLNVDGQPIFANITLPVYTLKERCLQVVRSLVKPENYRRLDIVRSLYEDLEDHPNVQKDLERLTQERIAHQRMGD
Sequence of NPM/ALK (Nucleophosmin/ALK tyrosine kinase receptor) (Homo sapiens) (P06748 whole entry partner, the tested form may be a part): as the sequence (P06748 whole entry, the tested form may be a part) above
Sequence of NPM/ALK (Nucleophosmin/ALK tyrosine kinase receptor) (Homo sapiens) (Q9UM73 19-1620 limits assumed): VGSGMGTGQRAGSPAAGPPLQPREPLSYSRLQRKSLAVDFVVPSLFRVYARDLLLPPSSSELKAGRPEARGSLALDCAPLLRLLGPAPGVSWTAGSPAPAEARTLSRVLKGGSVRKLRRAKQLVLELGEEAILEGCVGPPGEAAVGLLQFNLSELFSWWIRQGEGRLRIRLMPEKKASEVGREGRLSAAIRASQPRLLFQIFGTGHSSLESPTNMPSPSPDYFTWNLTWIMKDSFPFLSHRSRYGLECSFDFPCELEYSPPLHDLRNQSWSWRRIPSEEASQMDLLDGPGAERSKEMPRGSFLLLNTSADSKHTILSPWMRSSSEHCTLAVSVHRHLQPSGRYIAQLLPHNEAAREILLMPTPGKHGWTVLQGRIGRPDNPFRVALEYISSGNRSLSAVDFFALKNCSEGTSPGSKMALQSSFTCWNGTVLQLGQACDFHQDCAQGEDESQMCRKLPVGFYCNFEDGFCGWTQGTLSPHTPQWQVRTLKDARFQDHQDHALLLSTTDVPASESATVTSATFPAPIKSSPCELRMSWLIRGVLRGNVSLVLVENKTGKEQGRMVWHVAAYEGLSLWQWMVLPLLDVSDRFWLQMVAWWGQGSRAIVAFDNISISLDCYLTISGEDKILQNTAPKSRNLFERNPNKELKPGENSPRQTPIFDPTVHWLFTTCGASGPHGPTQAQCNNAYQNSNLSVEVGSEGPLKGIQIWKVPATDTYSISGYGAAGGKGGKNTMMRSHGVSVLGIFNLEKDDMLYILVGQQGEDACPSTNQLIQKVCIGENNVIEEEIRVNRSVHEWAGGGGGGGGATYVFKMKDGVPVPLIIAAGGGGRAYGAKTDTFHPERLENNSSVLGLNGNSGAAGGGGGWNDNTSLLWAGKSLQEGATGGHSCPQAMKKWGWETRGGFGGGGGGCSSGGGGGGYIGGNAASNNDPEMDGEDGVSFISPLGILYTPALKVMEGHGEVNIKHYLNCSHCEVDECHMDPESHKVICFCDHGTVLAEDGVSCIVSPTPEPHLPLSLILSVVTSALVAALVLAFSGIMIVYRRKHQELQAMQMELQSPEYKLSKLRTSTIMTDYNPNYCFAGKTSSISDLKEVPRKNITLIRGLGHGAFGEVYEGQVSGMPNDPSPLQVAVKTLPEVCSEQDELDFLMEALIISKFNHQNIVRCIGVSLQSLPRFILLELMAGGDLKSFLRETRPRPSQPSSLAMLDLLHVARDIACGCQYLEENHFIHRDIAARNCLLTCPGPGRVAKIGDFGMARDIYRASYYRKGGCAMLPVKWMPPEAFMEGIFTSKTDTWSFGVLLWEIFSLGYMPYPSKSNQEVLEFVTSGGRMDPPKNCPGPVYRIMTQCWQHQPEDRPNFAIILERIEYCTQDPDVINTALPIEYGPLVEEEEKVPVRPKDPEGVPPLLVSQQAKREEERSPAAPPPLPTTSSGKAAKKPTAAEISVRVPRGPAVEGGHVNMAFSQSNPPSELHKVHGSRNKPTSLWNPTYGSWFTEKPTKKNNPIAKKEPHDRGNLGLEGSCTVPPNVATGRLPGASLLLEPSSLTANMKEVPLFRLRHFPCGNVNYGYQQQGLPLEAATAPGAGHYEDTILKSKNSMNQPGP

| Structure (SMILES) | Activity [1] | further results |
| --- | --- | --- |
| COc1cc(N2CCC(N3CCN(C(=O)CCOCCOCCOCCOCCC(=O)N[C@H](C(=O)N4C[C@H](O)C[C@H]4C(=O)NCc4ccc(-c5scnc5C)cc4)C(C)(C)C)CC3)CC2)ccc1Nc1ncc(Cl)c(Nc2ccccc2P(C)(C)=O)n1 | inactive |  |
| COc1cc(N2CCN(C(=O)CCCCC(=O)N[C@H](C(=O)N3C[C@H](O)C[C@H]3C(=O)NCc3ccc(-c4scnc4C)cc3)C(C)(C)C)CC2)ccc1Nc1ncc(Cl)c(Nc2ccccc2P(C)(C)=O)n1 | Active |  |
| COc1cc(N2CCC(N)CC2)ccc1Nc1ncc(Cl)c(Nc2ccccc2P(C)(C)=O)n1 |  | IC50 [1]: 1.7 nM; Activity [2]: inactive |
| COc1cc(N2CCC(NC(=O)CCOCCOCCC(=O)N[C@H](C(=O)N3C[C@H](O)C[C@H]3C(=O)NCc3ccc(-c4scnc4C)cc3)C(C)(C)C)CC2)ccc1Nc1ncc(Cl)c(Nc2ccccc2P(C)(C)=O)n1 | inactive |  |
| COc1cc(N2CCN(C(=O)CCCCCC(=O)N[C@H](C(=O)N3C[C@H](O)C[C@H]3C(=O)NCc3ccc(-c4scnc4C)cc3)C(C)(C)C)CC2)ccc1Nc1ncc(Cl)c(Nc2ccccc2P(C)(C)=O)n1 | Active |  |
| COc1cc(N2CCC(N3CCN(C(=O)CCCCCCCCC(=O)N[C@H](C(=O)N4C[C@H](O)C[C@H]4C(=O)NCc4ccc(-c5scnc5C)cc4)C(C)(C)C)CC3)CC2)ccc1Nc1ncc(Cl)c(Nc2ccccc2P(C)(C)=O)n1 | Active | DC50 [3]: 7.5 nM |
| COc1cc(N2CCN(C(=O)CCCCCCCC(=O)N[C@H](C(=O)N3C[C@H](O)C[C@H]3C(=O)NCc3ccc(-c4scnc4C)cc3)C(C)(C)C)CC2)ccc1Nc1ncc(Cl)c(Nc2ccccc2P(C)(C)=O)n1 | Active | DC50 [3]: 15 nM |
| COc1cc(N2CCC(N3CCNCC3)CC2)ccc1Nc1ncc(Cl)c(Nc2ccccc2P(C)(C)=O)n1 |  | IC50 [1]: 6.8 nM; Activity [2]: inactive |
| COc1cc(N2CCC(NC(=O)CCOCCOCCOCCOCCOCCC(=O)N[C@H](C(=O)N3C[C@H](O)C[C@H]3C(=O)NCc3ccc(-c4scnc4C)cc3)C(C)(C)C)CC2)ccc1Nc1ncc(Cl)c(Nc2ccccc2P(C)(C)=O)n1 | inactive |  |
| COc1cc(N2CCN(C(=O)CCOCCOCCC(=O)N[C@H](C(=O)N3C[C@H](O)C[C@H]3C(=O)NCc3ccc(-c4scnc4C)cc3)C(C)(C)C)CC2)ccc1Nc1ncc(Cl)c(Nc2ccccc2P(C)(C)=O)n1 | inactive |  |
| COc1cc(N2CCN(C(=O)CCOCCOCCOCCOCCOCCC(=O)N[C@H](C(=O)N3C[C@H](O)C[C@H]3C(=O)NCc3ccc(-c4scnc4C)cc3)C(C)(C)C)CC2)ccc1Nc1ncc(Cl)c(Nc2ccccc2P(C)(C)=O)n1 | inactive |  |
| COc1cc(N2CCC(NC(=O)CCCCCCC(=O)N[C@H](C(=O)N3C[C@H](O)C[C@H]3C(=O)NCc3ccc(-c4scnc4C)cc3)C(C)(C)C)CC2)ccc1Nc1ncc(Cl)c(Nc2ccccc2P(C)(C)=O)n1 | Active | DC50 [3]: 9.1 nM |
| COc1cc(N2CCN(C(=O)CCCC(=O)N[C@H](C(=O)N3C[C@H](O)C[C@H]3C(=O)NCc3ccc(-c4scnc4C)cc3)C(C)(C)C)CC2)ccc1Nc1ncc(Cl)c(Nc2ccccc2P(C)(C)=O)n1 | Active |  |
| COc1cc(N2CCC(NC(=O)CCC(=O)N[C@H](C(=O)N3C[C@H](O)C[C@H]3C(=O)NCc3ccc(-c4scnc4C)cc3)C(C)(C)C)CC2)ccc1Nc1ncc(Cl)c(Nc2ccccc2P(C)(C)=O)n1 | Active |  |
| COc1cc(N2CCC(N3CCN(C(=O)CCCCC(=O)N[C@H](C(=O)N4C[C@H](O)C[C@H]4C(=O)NCc4ccc(-c5scnc5C)cc4)C(C)(C)C)CC3)CC2)ccc1Nc1ncc(Cl)c(Nc2ccccc2P(C)(C)=O)n1 | Active |  |
| COc1cc(N2CCC(N3CCN(C(=O)CCCC(=O)N[C@H](C(=O)N4C[C@H](O)C[C@H]4C(=O)NCc4ccc(-c5scnc5C)cc4)C(C)(C)C)CC3)CC2)ccc1Nc1ncc(Cl)c(Nc2ccccc2P(C)(C)=O)n1 | Active |  |
| COc1cc(N2CCN(C(=O)CCC(=O)N[C@H](C(=O)N3C[C@H](O)C[C@H]3C(=O)NCc3ccc(-c4scnc4C)cc3)C(C)(C)C)CC2)ccc1Nc1ncc(Cl)c(Nc2ccccc2P(C)(C)=O)n1 | Active |  |
| COc1cc(N2CCN(C(=O)CCCCCCCCC(=O)N[C@H](C(=O)N3C[C@H](O)C[C@H]3C(=O)NCc3ccc(-c4scnc4C)cc3)C(C)(C)C)CC2)ccc1Nc1ncc(Cl)c(Nc2ccccc2P(C)(C)=O)n1 | Active | DC50 [3]: > 50 nM |
| COc1cc(N2CCC(N3CCN(C(=O)CCCCCC(=O)N[C@H](C(=O)N4C[C@H](O)C[C@H]4C(=O)NCc4ccc(-c5scnc5C)cc4)C(C)(C)C)CC3)CC2)ccc1Nc1ncc(Cl)c(Nc2ccccc2P(C)(C)=O)n1 | Active |  |

| Structure (SMILES) | Activity [1] | further results |
| --- | --- | --- |
| COc1cc(N2CCN(C(=O)CCOCCOCCOCCOCCC(=O)N[C@H](C(=O)N3C[C@H](O)C[C@H]3C(=O)NCc3ccc(-c4scnc4C)cc3)C(C)(C)C)CC2)ccc1Nc1ncc(Cl)c(Nc2ccccc2P(C)(C)=O)n1 | inactive |  |
| COc1cc(N2CCC(N3CCN(C(=O)CCC(=O)N[C@H](C(=O)N4C[C@H](O)C[C@H]4C(=O)NCc4ccc(-c5scnc5C)cc4)C(C)(C)C)CC3)CC2)ccc1Nc1ncc(Cl)c(Nc2ccccc2P(C)(C)=O)n1 | Active |  |
| COc1cc(N2CCC(NC(=O)CCOCCOCCOCCC(=O)N[C@H](C(=O)N3C[C@H](O)C[C@H]3C(=O)NCc3ccc(-c4scnc4C)cc3)C(C)(C)C)CC2)ccc1Nc1ncc(Cl)c(Nc2ccccc2P(C)(C)=O)n1 | inactive |  |
| COc1cc(N2CCC(N3CCN(C(=O)CCOCCOCCOCCOCCOCCC(=O)N[C@H](C(=O)N4C[C@H](O)C[C@H]4C(=O)NCc4ccc(-c5scnc5C)cc4)C(C)(C)C)CC3)CC2)ccc1Nc1ncc(Cl)c(Nc2ccccc2P(C)(C)=O)n1 | inactive |  |
| COc1cc(N2CCC(N3CCN(C(=O)CCOCCOCCOCCC(=O)N[C@H](C(=O)N4C[C@H](O)C[C@H]4C(=O)NCc4ccc(-c5scnc5C)cc4)C(C)(C)C)CC3)CC2)ccc1Nc1ncc(Cl)c(Nc2ccccc2P(C)(C)=O)n1 | inactive |  |
| COc1cc(N2CCNCC2)ccc1Nc1ncc(Cl)c(Nc2ccccc2P(C)(C)=O)n1 |  | IC50 [1]: 1.6 nM |
| COc1cc(N2CCC(N3CCN(C(=O)CCCCCCC(=O)N[C@H](C(=O)N4C[C@H](O)C[C@H]4C(=O)NCc4ccc(-c5scnc5C)cc4)C(C)(C)C)CC3)CC2)ccc1Nc1ncc(Cl)c(Nc2ccccc2P(C)(C)=O)n1 | Active | DC50 [3]: 11.4 nM |
| COc1cc(N2CCC(NC(=O)CCCCCCCCC(=O)N[C@H](C(=O)N3C[C@H](O)C[C@H]3C(=O)NCc3ccc(-c4scnc4C)cc3)C(C)(C)C)CC2)ccc1Nc1ncc(Cl)c(Nc2ccccc2P(C)(C)=O)n1 | Active | DC50 [3]: 7.2 nM |
| COc1cc(N2CCC(NC(=O)CCCCCCCC(=O)N[C@H](C(=O)N3C[C@H](O)C[C@H]3C(=O)NCc3ccc(-c4scnc4C)cc3)C(C)(C)C)CC2)ccc1Nc1ncc(Cl)c(Nc2ccccc2P(C)(C)=O)n1 | Active | DC50 [3]: 20.9 nM |
| COc1cc(N2CCC(N3CCN(C)CC3)CC2)ccc1Nc1ncc(Cl)c(Nc2ccccc2P(C)(C)=O)n1 [BRIGATINIB] |  | IC50 [4]: 2600 nM; IC50 [5]: 58.2 nM; IC50 [6]: 691 nM; IC50 [1]: 2.7 nM; Activity [2]: inactive |
| COc1cc(N2CCC(N3CCN(C(=O)CCCCCCCC(=O)N[C@H](C(=O)N4C[C@H](O)C[C@H]4C(=O)NCc4ccc(-c5scnc5C)cc4)C(C)(C)C)CC3)CC2)ccc1Nc1ncc(Cl)c(Nc2ccccc2P(C)(C)=O)n1 | Active | DC50 [3]: 25.1 nM |
| Cc1ncsc1-c1ccc(CNC(=O)[C@@H]2C[C@@H](O)CN2C(=O)[C@@H](NC(=O)CCCCCCCCCC(=O)O)C(C)(C)C)cc1 |  | IC50 [4]: > 40000 nM; IC50 [6]: > 45000 nM |
| COc1cc(N2CCC(NC(=O)CCOCCOCCOCCOCCC(=O)N[C@H](C(=O)N3C[C@H](O)C[C@H]3C(=O)NCc3ccc(-c4scnc4C)cc3)C(C)(C)C)CC2)ccc1Nc1ncc(Cl)c(Nc2ccccc2P(C)(C)=O)n1 | inactive |  |
| COc1cc(N2CCC(NC(=O)CCCCC(=O)N[C@H](C(=O)N3C[C@H](O)C[C@H]3C(=O)NCc3ccc(-c4scnc4C)cc3)C(C)(C)C)CC2)ccc1Nc1ncc(Cl)c(Nc2ccccc2P(C)(C)=O)n1 | Active |  |
| COc1cc(N2CCN(C(=O)CCOCCOCCOCCC(=O)N[C@H](C(=O)N3C[C@H](O)C[C@H]3C(=O)NCc3ccc(-c4scnc4C)cc3)C(C)(C)C)CC2)ccc1Nc1ncc(Cl)c(Nc2ccccc2P(C)(C)=O)n1 | inactive |  |
| COc1cc(N2CCN(C(=O)CCCCCCC(=O)N[C@H](C(=O)N3C[C@H](O)C[C@H]3C(=O)NCc3ccc(-c4scnc4C)cc3)C(C)(C)C)CC2)ccc1Nc1ncc(Cl)c(Nc2ccccc2P(C)(C)=O)n1 | Active | DC50 [3]: > 50 nM |
| COc1cc(N2CCC(NC(=O)CCCCCC(=O)N[C@H](C(=O)N3C[C@H](O)C[C@H]3C(=O)NCc3ccc(-c4scnc4C)cc3)C(C)(C)C)CC2)ccc1Nc1ncc(Cl)c(Nc2ccccc2P(C)(C)=O)n1 | Active |  |
| COc1cc(N2CCC(N3CCN(C(=O)CCOCCOCCC(=O)N[C@H](C(=O)N4C[C@H](O)C[C@H]4C(=O)NCc4ccc(-c5scnc5C)cc4)C(C)(C)C)CC3)CC2)ccc1Nc1ncc(Cl)c(Nc2ccccc2P(C)(C)=O)n1 | inactive |  |
| COc1cc(N2CCC(NC(=O)CCCC(=O)N[C@H](C(=O)N3C[C@H](O)C[C@H]3C(=O)NCc3ccc(-c4scnc4C)cc3)C(C)(C)C)CC2)ccc1Nc1ncc(Cl)c(Nc2ccccc2P(C)(C)=O)n1 | Active |  |
